Experimental data from ChEMBL document CHEMBL1201862, “PubChem BioAssay data set” (2004).
Active and inactive are the calls of the source.

Tests used:
Type in all cases: functional
[1] = biological target: Peroxisome proliferator-activated receptor gamma/Nuclear receptor corepressor 2 (Homo sapiens, UniProt P37231+Q9Y618); assay: Counterscreen for NR2E3 inverse agonists: TR-FRET-based biochemical high throughput dose response assay to identify inverse agonists of the interaction between peroxisome proliferator-activated receptor gamma (PPARg) and nuclear receptor co-repressor 2 (NCOR2).
Peroxisome proliferator-activated receptor gamma/Nuclear receptor corepressor 2, sequence (P37231 whole entry): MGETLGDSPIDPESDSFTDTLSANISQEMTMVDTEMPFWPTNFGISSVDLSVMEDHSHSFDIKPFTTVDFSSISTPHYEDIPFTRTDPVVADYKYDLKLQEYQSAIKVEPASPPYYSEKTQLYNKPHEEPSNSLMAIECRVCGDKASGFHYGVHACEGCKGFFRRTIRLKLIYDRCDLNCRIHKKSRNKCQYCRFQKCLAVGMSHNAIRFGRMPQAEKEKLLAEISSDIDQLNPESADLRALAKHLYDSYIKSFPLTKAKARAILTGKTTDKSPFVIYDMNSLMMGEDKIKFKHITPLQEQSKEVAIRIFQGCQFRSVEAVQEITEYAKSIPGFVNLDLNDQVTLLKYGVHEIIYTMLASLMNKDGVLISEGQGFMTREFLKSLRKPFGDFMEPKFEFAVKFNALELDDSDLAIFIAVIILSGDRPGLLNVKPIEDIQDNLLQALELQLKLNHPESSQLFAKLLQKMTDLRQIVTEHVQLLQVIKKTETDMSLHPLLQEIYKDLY
Peroxisome proliferator-activated receptor gamma/Nuclear receptor corepressor 2, sequence (Q9Y618 whole entry): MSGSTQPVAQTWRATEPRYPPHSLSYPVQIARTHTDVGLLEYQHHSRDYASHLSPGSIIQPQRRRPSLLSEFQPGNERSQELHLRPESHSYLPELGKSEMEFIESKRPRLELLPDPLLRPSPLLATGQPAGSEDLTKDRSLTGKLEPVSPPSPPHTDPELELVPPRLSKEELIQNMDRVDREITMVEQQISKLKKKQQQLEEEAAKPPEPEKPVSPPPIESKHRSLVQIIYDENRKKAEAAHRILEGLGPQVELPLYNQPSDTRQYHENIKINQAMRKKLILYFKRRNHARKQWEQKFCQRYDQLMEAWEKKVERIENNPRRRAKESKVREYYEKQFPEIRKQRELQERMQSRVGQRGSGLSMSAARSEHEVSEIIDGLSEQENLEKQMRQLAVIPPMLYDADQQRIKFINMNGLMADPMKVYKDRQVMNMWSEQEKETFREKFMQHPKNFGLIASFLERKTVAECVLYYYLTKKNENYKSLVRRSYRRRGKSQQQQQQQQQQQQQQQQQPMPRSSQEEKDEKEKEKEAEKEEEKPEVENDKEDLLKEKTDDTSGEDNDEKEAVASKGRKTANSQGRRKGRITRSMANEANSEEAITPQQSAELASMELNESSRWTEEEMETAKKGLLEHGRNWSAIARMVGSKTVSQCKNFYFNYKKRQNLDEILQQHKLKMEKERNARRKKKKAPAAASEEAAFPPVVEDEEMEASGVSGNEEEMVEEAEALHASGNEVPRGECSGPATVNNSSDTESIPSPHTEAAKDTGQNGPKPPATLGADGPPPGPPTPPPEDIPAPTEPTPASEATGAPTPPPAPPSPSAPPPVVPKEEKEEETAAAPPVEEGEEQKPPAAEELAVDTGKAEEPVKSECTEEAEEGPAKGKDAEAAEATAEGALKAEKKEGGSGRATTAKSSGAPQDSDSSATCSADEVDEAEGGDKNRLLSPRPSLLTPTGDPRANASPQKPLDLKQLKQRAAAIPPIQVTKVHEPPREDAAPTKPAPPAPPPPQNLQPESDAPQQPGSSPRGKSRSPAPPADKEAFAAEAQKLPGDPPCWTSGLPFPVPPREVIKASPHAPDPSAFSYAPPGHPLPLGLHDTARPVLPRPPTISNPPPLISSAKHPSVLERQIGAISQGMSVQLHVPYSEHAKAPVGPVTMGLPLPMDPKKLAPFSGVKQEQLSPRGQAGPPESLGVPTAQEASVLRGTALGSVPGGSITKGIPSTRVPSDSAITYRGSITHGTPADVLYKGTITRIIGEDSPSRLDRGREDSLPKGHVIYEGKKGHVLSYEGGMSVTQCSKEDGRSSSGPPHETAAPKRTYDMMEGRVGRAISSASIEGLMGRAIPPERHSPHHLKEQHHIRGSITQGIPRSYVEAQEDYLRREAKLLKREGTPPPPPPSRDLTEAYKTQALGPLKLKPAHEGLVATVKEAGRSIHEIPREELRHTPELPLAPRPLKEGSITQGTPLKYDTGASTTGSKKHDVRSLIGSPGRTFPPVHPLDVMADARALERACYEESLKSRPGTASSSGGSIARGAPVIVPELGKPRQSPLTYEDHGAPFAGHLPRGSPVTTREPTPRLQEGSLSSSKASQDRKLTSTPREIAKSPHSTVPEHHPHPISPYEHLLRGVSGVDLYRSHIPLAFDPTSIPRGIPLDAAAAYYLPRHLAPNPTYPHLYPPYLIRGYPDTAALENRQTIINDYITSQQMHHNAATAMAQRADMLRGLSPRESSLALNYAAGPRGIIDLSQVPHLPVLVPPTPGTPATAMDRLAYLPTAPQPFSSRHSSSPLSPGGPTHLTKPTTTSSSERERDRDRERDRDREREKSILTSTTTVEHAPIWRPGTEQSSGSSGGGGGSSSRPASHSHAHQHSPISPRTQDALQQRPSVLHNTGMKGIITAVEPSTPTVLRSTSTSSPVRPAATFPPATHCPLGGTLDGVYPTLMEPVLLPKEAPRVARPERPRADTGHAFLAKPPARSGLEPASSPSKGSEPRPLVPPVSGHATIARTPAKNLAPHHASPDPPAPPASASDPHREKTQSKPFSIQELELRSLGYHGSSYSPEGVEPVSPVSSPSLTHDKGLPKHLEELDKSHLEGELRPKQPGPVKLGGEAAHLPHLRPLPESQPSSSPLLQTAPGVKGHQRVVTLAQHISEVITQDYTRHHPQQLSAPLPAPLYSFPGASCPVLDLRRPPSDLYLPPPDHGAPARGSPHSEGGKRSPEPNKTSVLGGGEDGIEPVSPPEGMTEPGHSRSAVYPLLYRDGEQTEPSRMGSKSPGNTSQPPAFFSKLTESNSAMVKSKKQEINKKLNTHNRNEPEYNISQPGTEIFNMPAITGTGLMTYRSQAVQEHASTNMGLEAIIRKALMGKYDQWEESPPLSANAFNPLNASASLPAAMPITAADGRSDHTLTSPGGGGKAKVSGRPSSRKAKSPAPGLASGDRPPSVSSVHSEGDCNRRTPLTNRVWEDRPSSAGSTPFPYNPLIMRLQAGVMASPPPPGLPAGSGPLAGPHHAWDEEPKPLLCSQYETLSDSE

[2] = biological target: Photoreceptor-specific nuclear receptor (Homo sapiens, UniProt Q9Y5X4); assay: ligands suppressing NR2E3 nuclear receptor activity – biochemical, TR-FRET, dose response (AID 463256)
Photoreceptor-specific nuclear receptor, sequence (Q9Y5X4 whole entry): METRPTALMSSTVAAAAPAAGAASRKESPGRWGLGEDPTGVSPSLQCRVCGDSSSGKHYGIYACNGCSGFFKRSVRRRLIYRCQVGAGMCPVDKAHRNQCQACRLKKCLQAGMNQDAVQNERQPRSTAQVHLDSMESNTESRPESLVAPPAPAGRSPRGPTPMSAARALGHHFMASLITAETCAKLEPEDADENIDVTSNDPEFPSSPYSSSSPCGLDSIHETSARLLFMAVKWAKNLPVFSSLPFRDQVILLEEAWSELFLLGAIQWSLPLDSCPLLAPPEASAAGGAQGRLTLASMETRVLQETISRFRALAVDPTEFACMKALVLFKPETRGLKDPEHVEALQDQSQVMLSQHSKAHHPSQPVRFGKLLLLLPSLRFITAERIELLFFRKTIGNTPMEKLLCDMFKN

[3] = biological target: T1, Corticotropin-releasing factor receptor 2/Corticotropin-releasing factor-binding protein (Homo sapiens, UniProt P24387+Q13324); assay: Dose Response confirmation of uHTS hits for small molecule antagonists of the CRF-binding protein and CRF-R2 receptor complex.; details: read-out: IC50_Mean
T1 sequence (Q13324 whole entry): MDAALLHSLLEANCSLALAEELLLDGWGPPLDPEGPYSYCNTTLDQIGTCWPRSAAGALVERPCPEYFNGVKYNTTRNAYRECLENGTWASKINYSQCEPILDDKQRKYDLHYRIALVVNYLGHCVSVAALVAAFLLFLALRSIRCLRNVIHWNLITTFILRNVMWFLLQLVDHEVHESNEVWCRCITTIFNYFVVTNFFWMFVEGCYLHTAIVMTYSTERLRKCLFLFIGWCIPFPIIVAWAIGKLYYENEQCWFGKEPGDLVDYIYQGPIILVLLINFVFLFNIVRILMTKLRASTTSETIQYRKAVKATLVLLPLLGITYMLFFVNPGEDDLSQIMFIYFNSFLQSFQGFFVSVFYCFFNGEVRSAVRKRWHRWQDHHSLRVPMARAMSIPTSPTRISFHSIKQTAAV
T1 sequence (P24387 whole entry): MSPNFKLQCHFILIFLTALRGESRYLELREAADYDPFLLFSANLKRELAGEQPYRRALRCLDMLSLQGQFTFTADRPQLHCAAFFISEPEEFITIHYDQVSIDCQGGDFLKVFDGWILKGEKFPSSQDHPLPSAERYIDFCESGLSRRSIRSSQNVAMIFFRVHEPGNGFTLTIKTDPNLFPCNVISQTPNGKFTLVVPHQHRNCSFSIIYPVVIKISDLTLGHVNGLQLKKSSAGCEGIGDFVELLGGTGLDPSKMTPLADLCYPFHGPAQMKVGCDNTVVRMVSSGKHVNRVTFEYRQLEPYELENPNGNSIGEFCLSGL

[4] = biological target: T1, Corticotropin-releasing factor receptor 2/Corticotropin-releasing factor-binding protein; assay: activators of CRF receptor 2 with binding protein – uHTS hits, confirmation (AID 602473); details: read-out: EC50_Mean
[5] = biological target: T2, Small ubiquitin-related modifier 1 (Homo sapiens, UniProt P63165); assay: SUMO1 protein interaction blockers, potency – biochemical, fluorescence polarization, uHTS hits, dose response (AID 624382); details: read-out: IC50_Mean
T2 sequence (P63165 whole entry): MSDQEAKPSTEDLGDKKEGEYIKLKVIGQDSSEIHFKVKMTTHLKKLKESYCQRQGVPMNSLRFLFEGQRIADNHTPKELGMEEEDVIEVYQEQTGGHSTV

[6] = biological target: T2, Small ubiquitin-related modifier 1; assay: SUMO1 protein-protein binding blockers, potency – biochemical, FRET, dose response (AID 624383); details: read-out: IC50_Mean

IC50 [3] | EC50 [4] | SMILES | IC50 [1] | IC50 [2] | IC50 [5] | IC50 [6]
> 47.1 µM (inactive) | > 53 µM (inactive) | CC(=O)c1ccc(NC(=O)CSc2ccc(-c3ccc4c(c3)OCO4)nn2)cc1 | 2.9 µM (active) | 3.53 µM (active) | – | –
– | – | Cc1ccc(NC(=O)CSc2nc3ccccc3c3nc(CCc4c(C)n[nH]c4C)nn23)cc1F | 0.356 µM (active) | 0.474 µM (active) | > 66.6 µM (inactive) | 3.78 µM (active)
